Twelve compounds from PubChem BioAssay (NCI) can be followed below.

Test systems include 786-0 renal; A549 NSCLC; CCRF-CEM leukemia; COLO 205 colon; HCT-116 colon; HCT-15 colon; HS 578T breast; MCF7 breast; MOLT-4 leukemia; NCI-H226 lung; OVCAR-5 ovarian; UO-31 renal; A498 renal.
Holding throughout (assay): inhibition of tumour cell growth, NCI panel, 48 h

Each structure is given as a SMILES string.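 Results reflect a 48-hour exposure of cells in 96-well plates to compound at five concentrations. TGI: total growth inhibition.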

In the case of `c1ccc2cc3c(cc2c1)nc1ccccn13`, the TGI in the assay with 786-0 renal, in the assay with A549 NSCLC, in the assay with CCRF-CEM leukemia, in the assay on COLO 205 colon, with HCT-116 colon and in the assay with HCT-15 colon was greater than 100 µM throughout. In addition, the TGI in the assay with HS 578T breast, with MCF7 breast, with MOLT-4 leukemia, with NCI-H226 lung, with OVCAR-5 ovarian and with UO-31 renal was greater than 100 µM in each case.
Take `O=c1oc2ccc([N+](=O)[O-])cc2c(Nc2ccc3c(c2)S(=O)(=O)c2ccccc2O3)c1[N+](=O)[O-]`: the TGI in the assay on 786-0 renal, in the assay with A549 NSCLC, in the assay with CCRF-CEM leukemia, in the assay on COLO 205 colon, with HCT-116 colon and with HCT-15 colon was greater than 100 µM in each case. The TGI in the assay on HS 578T breast was greater than 100 µM; in the assay with MCF7 breast, greater than 100 µM; with MOLT-4 leukemia, greater than 100 µM; in the assay with NCI-H226 lung it was 96.8 µM; in the assay with OVCAR-5 ovarian, greater than 100 µM; in the assay with UO-31 renal it was greater than 100 µM.
In the case of `CN(C)Cc1cc(C(C)(C)C)cc(C2CCCCC2)c1O`, the TGI with 786-0 renal was 41.5 µM; in the assay on A549 NSCLC, 26.5 µM; in the assay with CCRF-CEM leukemia, 27.1 µM; with COLO 205 colon it was 27.2 µM; with HCT-116 colon, greater than 100 µM; with HCT-15 colon, 28.6 µM. Also, the TGI in the assay with HS 578T breast amounted to 33.9 µM; with MCF7 breast it was 36.4 µM; in the assay with MOLT-4 leukemia, 22.6 µM; in the assay on NCI-H226 lung, 31.2 µM; with OVCAR-5 ovarian, 34.9 µM; in the assay on UO-31 renal, 32.5 µM.
As for `CCOP(=O)(OCC)/C(C#N)=C/c1ccnc2ccccc12`, the TGI in the assay with 786-0 renal is 51.2 µM; with A498 renal it was greater than 100 µM; in the assay with A549 NSCLC, greater than 100 µM; with COLO 205 colon it was 38.1 µM; with HCT-116 colon, greater than 100 µM; in the assay with HCT-15 colon, 52.4 µM. Moreover, the TGI in the assay with HS 578T breast was 69.6 µM; in the assay with MCF7 breast, greater than 100 µM; with MOLT-4 leukemia, greater than 100 µM; in the assay on NCI-H226 lung it was 55.9 µM; with OVCAR-5 ovarian, 51 µM.
`O=C1Oc2cc3c(c4cccc1c24)O[C@H](c1ccccc1)[C@@H](c1ccccc1)[C@@H]3c1ccc(Cl)cc1`: the TGI in the assay with 786-0 renal, with CCRF-CEM leukemia, with COLO 205 colon, with HCT-116 colon, in the assay with HCT-15 colon and with HS 578T breast was greater than 100 µM each time. For the same compound, the TGI in the assay on MCF7 breast was greater than 100 µM; in the assay on MOLT-4 leukemia, 64.3 µM; in the assay on NCI-H226 lung, greater than 100 µM; in the assay with OVCAR-5 ovarian, greater than 100 µM.
Take `CCOP(=O)(OCC)/C(C#N)=C/c1c[nH]c2ccccc12`: the TGI in the assay with 786-0 renal, with A498 renal, in the assay with A549 NSCLC, in the assay with COLO 205 colon, with HCT-116 colon and in the assay with HCT-15 colon was greater than 100 µM each time. For the same compound, the TGI with HS 578T breast was greater than 100 µM; in the assay with MCF7 breast it was greater than 100 µM; with NCI-H226 lung it was greater than 100 µM; in the assay on OVCAR-5 ovarian, greater than 100 µM; with UO-31 renal, 77.4 µM.
For the compound `COc1cc(C(=O)Oc2c(C#N)sc3c2c(=O)n(-c2ccccc2)c(=S)n3-c2ccccc2)cc(OC)c1OC`, the TGI in the assay on 786-0 renal is greater than 100 µM; in the assay on A498 renal, 19.6 µM; in the assay with A549 NSCLC, 95.3 µM; in the assay with CCRF-CEM leukemia it was 28.9 µM; in the assay with COLO 205 colon, 30.7 µM; with HCT-116 colon, 35.5 µM. Further, the TGI with HCT-15 colon worked out at 43 µM; with HS 578T breast, 42.5 µM; in the assay with MCF7 breast, 57.1 µM; in the assay with MOLT-4 leukemia, 40.6 µM; in the assay with NCI-H226 lung it was 32.7 µM; with OVCAR-5 ovarian it was 46.7 µM.
Consider `COCCOC(=O)C(C)=[N+]=[N-]`, for which the TGI with 786-0 renal, with A498 renal, in the assay with COLO 205 colon, in the assay on HCT-116 colon, with HCT-15 colon and in the assay with HS 578T breast was greater than 100 µM throughout. Moreover, the TGI in the assay on MCF7 breast, in the assay on NCI-H226 lung, in the assay with OVCAR-5 ovarian and with UO-31 renal was greater than 100 µM throughout.
As to `CCc1cc2c(oc3cc(C)ccc32)c(=O)n1C`, the TGI in the assay with 786-0 renal, with A549 NSCLC, in the assay on CCRF-CEM leukemia, in the assay on HCT-116 colon, in the assay on HCT-15 colon and with HS 578T breast was greater than 10 µM each time. Further, the TGI in the assay on MCF7 breast, with MOLT-4 leukemia, in the assay on NCI-H226 lung, with OVCAR-5 ovarian and in the assay on UO-31 renal was greater than 10 µM in each case.
In the case of `COc1ccccc1CNC(=O)[C@H](Cc1ccc(O)cn1)NC(C)=O`, the TGI in the assay with 786-0 renal, with A498 renal, in the assay on A549 NSCLC, in the assay on CCRF-CEM leukemia, in the assay with COLO 205 colon and with HCT-116 colon was greater than 100 µM in each case. Also, the TGI in the assay on HCT-15 colon, in the assay with HS 578T breast, with MCF7 breast, with NCI-H226 lung, in the assay with OVCAR-5 ovarian and in the assay on UO-31 renal was greater than 100 µM throughout.
For `CC[C@@H]1/C=C/C=C/C[C@H](C)[C@@H](O)[C@](C)(O)C(=O)[C@H](C)[C@@H](O)[C@H](C)C(=O)[C@H](C)[C@@H](O)[C@H](C)/C=C/C(=O)O[C@H]2[C@@H](C)[C@@H](CC1)O[C@@]1(CC[C@@H](C)[C@@H](CC(C)O)O1)[C@@H]2C` (some centres not stated), the TGI stood at 4.45 µM with 786-0 renal; 9.12 µM in the assay with A498 renal; 9.1 µM in the assay on A549 NSCLC; 6.05 µM in the assay on CCRF-CEM leukemia; 1.99 µM in the assay on COLO 205 colon; 3.11 µM in the assay on HCT-116 colon. For the same compound, the TGI in the assay on HCT-15 colon is 11.3 µM; with HS 578T breast, greater than 25.1 µM; with MCF7 breast it was 7.08 µM; in the assay on MOLT-4 leukemia it was 6.26 µM; with OVCAR-5 ovarian, 7.38 µM; in the assay on UO-31 renal, 12.3 µM.
Consider `O=c1[nH]c2c(c(=O)[nH]1)SSC2`, for which the TGI in the assay on 786-0 renal was 17.5 µM; in the assay on A498 renal, 52 µM; in the assay on A549 NSCLC, greater than 63.5 µM; in the assay on COLO 205 colon, 50.7 µM; in the assay on HCT-116 colon, 13.8 µM; in the assay on HCT-15 colon it was greater than 91.9 µM. In addition, the TGI is 56 µM with HS 578T breast; greater than 54.3 µM with MCF7 breast; 4.79 µM in the assay on MOLT-4 leukemia; 41.1 µM with NCI-H226 lung; 32.4 µM with OVCAR-5 ovarian; 24.2 µM in the assay on UO-31 renal.
